# Reference: ChEMBL document CHEMBL1149805, “Antibacterial activity of a novel series of 3-bromo-4-(1H-3-indolyl)-2,5-dihydro-1H-2,5-pyrroledione derivatives--an extended structure-activity relationship study” (Eur J Med Chem, 2008)
# Active and inactive are the calls of the source. No rule for the calls is given here.
# Columns and labels:
# Staphylococcus aureus = assay: Antibacterial activity against Staphylococcus aureus 134/93 after 24 hrs by broth microdilution method; assay type: functional; settings: for MIC: Staphylococcus aureus, 134/93, 24 h
# [1] = tested on: Mycolicibacterium smegmatis; assay: Antibacterial activity against Mycobacterium smegmatis SG987 after 24 hrs by broth microdilution method; assay type: functional; settings: for MIC: Mycolicibacterium smegmatis, SG987, 24 h
# Escherichia coli = assay: Antibacterial activity against Escherichia coli after 24 hrs by broth microdilution method; assay type: functional, organism-based
# Candida albicans = assay: Antibacterial activity against Candida albicans after 24 hrs by broth microdilution method; assay type: functional, organism-based
# [2] = Partition coefficient, log P of the compound; assay type: physicochemical; settings: octanol/water
Compound,MIC (Staphylococcus aureus) [µM],MIC [1] [µM],logP [2],-logMIC (Staphylococcus aureus),-logMIC [1],Activity (Escherichia coli),Activity (Candida albicans)
CCc1ccc2[nH]c(-c3ccc(OC)cc3)c(C3=C(Br)C(=O)NC3=O)c2c1,0.23,3.67,3.23,6.6,5.4,inactive,inactive
CCCCCOc1ccc(-c2[nH]c3ccccc3c2C2=C(Br)C(=O)NC2=O)cc1,0.88,126,4.2,6.1,3.9,inactive,inactive
CCCCCc1ccc2[nH]c(-c3ccc(OC)cc3)c(C3=C(Br)C(=O)NC3=O)c2c1,0.85,3.3,4.1,6.1,5.5,inactive,inactive
COc1cccc(-c2[nH]c3ccc(OC)cc3c2C2=C(Br)C(=O)NC2=O)c1,1.9,15.8,2.79,5.7,4.8,inactive,inactive
O=C(CCc1[nH]c2ccccc2c1C1=C(Br)C(=O)NC1=O)Nc1ccccc1,0.18,21,2.42,6.7,4.7,inactive,inactive
Cc1cccc(NC(=O)CCCc2[nH]c3ccccc3c2C2=C(Br)C(=O)NC2=O)c1,0.79,27,2.56,6.1,4.6,inactive,inactive
CCCCOc1ccc2[nH]c(-c3cccc(OC)c3)c(C3=C(Br)C(=O)NC3=O)c2c1,3.3,6.31,3.46,5.5,5.2,inactive,inactive
CCCc1ccc2[nH]c(-c3ccc(OC)cc3)c(C3=C(Br)C(=O)NC3=O)c2c1,0.45,1.8,3.45,6.3,5.7,inactive,inactive
CCOc1ccc2[nH]c(-c3cccc(OC)c3)c(C3=C(Br)C(=O)NC3=O)c2c1,3.5,6.31,2.97,5.5,5.2,inactive,inactive

# The next lines start with results.
MIC (Staphylococcus aureus) [µM],MIC [1] [µM],logP [2],Compound,-logMIC (Staphylococcus aureus),-logMIC [1],Activity (Escherichia coli),Activity (Candida albicans)
0.5,29.4,3.35,CCc1cccc2c(C3=C(Br)C(=O)NC3=O)c(-c3ccc(OC)cc3)[nH]c12,6.3,4.5,inactive,inactive
0.32,15.8,2.42,COc1ccc(-c2[nH]c3ccccc3c2C2=C(Br)C(=O)NC2=O)cc1,6.5,4.8,inactive,inactive
27,27.5,3.75,CCCCCOc1ccc2[nH]c(-c3ccccc3)c(C3=C(Br)C(=O)NC3=O)c2c1,4.6,4.6,inactive,inactive
3.98,32.6,3.19,Cc1cccc2c(C3=C(Br)C(=O)NC3=O)c(-c3ccccc3)[nH]c12,5.4,4.5,inactive,inactive
2.51,31.7,3.42,CCc1cccc2c(C3=C(Br)C(=O)NC3=O)c(-c3ccccc3)[nH]c12,5.7,4.5,inactive,inactive
0.45,15.8,3.87,CCCCOc1ccc(-c2[nH]c3ccccc3c2C2=C(Br)C(=O)NC2=O)cc1,6.3,4.8,inactive,inactive
2,30.4,3.12,COc1ccc(-c2[nH]c3c(C)cccc3c2C2=C(Br)C(=O)NC2=O)cc1,5.7,4.5,inactive,inactive
0.5,3.8,3.43,CCCc1ccc2[nH]c(-c3ccccc3)c(C3=C(Br)C(=O)NC3=O)c2c1,6.3,5.4,inactive,inactive
